Measurements published in the supplement of paper PMC10307832.

Columns and labels:
Assay in all cases: relative viability (nuclei count vs DMSO), 5 days (fraction); higher = more cells survive
[1] = compound: CN1C=C(C2=CC=CC=C21)/C=C\3/C4=C(C=CC=N4)NC3=O + N=C(N)NC(=N)NCCc1ccccc1 [Phenformin] (partner 250 µM)
Procedure, shortened: (§1)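 One day after seeding in 1536-well plates, lung cancer cell lines were dosed by pin tool. Dosing was either single-drug or a fixed anchor-drug dose plus five library-drug doses (not always all listed) in √10 steps. After 5 days, nuclei were stained in one fix-and-stain step and counted on 4× images, and relative viability is the nuclei count of treated wells over that of vehicle wells, given as the median of duplicate plates.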

[2] = compound: CC(=O)Nc1cccc(-n2c(=O)n(C3CC3)c(=O)c3c(Nc4ccc(I)cc4F)n(C)c(=O)c(C)c32)c1 [Trametinib] + COc1cccc2cc(-c3nc([C@H]4CC[C@H](C(=O)O)CC4)n4ncnc(N)c34)[nH]c12 [OSI-027] (partner 0.5 µM)
Procedure, shortened: as §1

[3] = compound: CC(=O)Nc1cccc(-n2c(=O)n(C3CC3)c(=O)c3c(Nc4ccc(I)cc4F)n(C)c(=O)c(C)c32)c1 [Trametinib] + NC(=O)Nc1cc(-c2cccc(F)c2)sc1C(=O)N[C@H]1CCCNC1 [AZD7762] (partner 0.2 µM)
Procedure, shortened: as §1

Cell Line	relative viability ([1]; first compound 0.02 µM)	relative viability ([1]; first compound 0.06325 µM)	relative viability ([1]; first compound 0.2 µM)	relative viability ([1]; first compound 0.6325 µM)	relative viability ([1]; first compound 2 µM)	relative viability ([2]; first compound 0.0025 µM)	relative viability ([2]; first compound 0.007906 µM)	relative viability ([2]; first compound 0.025 µM)	relative viability ([2]; first compound 0.07906 µM)	relative viability ([2]; first compound 0.25 µM)	relative viability ([3]; first compound 0.0025 µM)	relative viability ([3]; first compound 0.007906 µM)	relative viability ([3]; first compound 0.025 µM)	relative viability ([3]; first compound 0.07906 µM)	relative viability ([3]; first compound 0.25 µM)
201T	0.434	0.451	0.429	0.394	0.422	0.707	0.642	0.633	0.443	0.505	0.632	0.607	0.473	0.592	0.557
A549	0.16	0.101	0.181	0.114	0.183	–	–	–	–	–	–	–	–	–	–
A-427	0.261	0.309	–	0.275	0.348	0.373	0.287	0.212	0.242	0.143	0.662	0.573	0.525	0.373	0.371
ABC-1	0.226	0.242	0.23	0.244	0.21	0.403	0.439	0.28	0.266	0.225	0.801	0.756	0.562	0.555	0.915
BEN	0.264	0.29	–	0.255	0.242	0.317	0.274	0.27	0.294	0.325	0.703	0.652	0.412	0.525	0.635
CAL-12T	0.507	0.537	0.613	0.612	0.601	0.543	0.333	0.224	0.353	0.193	0.642	0.61	0.619	0.536	0.483
COR-L23	0.429	0.396	0.394	0.48	0.441	0.686	0.7	0.364	0.455	0.249	–	–	–	–	–
COR-L 105	0.518	0.444	0.496	0.489	0.486	0.583	0.477	0.309	0.333	0.295	–	–	–	–	–
ChaGo-K-1	0.419	0.492	0.41	0.522	0.471	0.558	0.488	0.51	0.423	0.403	0.909	0.859	0.793	0.781	0.807
EKVX	0.206	0.227	0.226	0.201	0.236	0.667	0.532	0.379	0.473	0.426	0.653	0.712	0.583	0.442	0.769
EMC-BAC-2	0.538	0.525	0.522	0.475	0.533	0.452	0.488	0.381	0.511	0.359	1.19	1.14	0.994	0.932	0.757
EPLC-272H	0.287	0.244	0.242	–	0.3	0.319	0.285	0.192	0.129	0.183	0.223	0.242	0.175	0.17	0.225
H3255	0.384	0.36	0.341	0.327	0.366	0.595	0.571	0.462	0.397	0.338	0.805	0.736	0.8	0.733	0.505
HARA	0.407	0.412	–	0.34	0.431	0.575	0.359	0.23	0.328	0.0752	0.447	0.394	0.365	0.276	0.215
HCC-15	0.422	0.462	0.486	0.448	0.463	0.436	0.338	0.201	0.161	0.167	1.29	1	1.14	0.928	0.407
HCC-44	0.187	0.122	0.115	0.135	0.136	0.487	0.249	0.424	0.311	0.183	0.958	1.07	1.2	1.31	1.05
HCC-78	0.545	0.709	–	0.525	0.614	0.366	0.361	0.313	0.343	0.333	0.661	0.484	0.393	0.427	0.46
HCC-366	0.578	0.641	0.602	0.664	0.667	0.684	0.763	0.371	0.414	0.201	0.24	0.24	0.323	0.167	0.143
HCC-827	0.405	0.413	–	0.465	0.388	0.702	0.671	0.529	0.392	0.429	0.226	0.17	0.153	0.183	0.161
HOP-62	0.645	0.678	0.72	0.664	0.752	0.879	0.873	0.493	0.219	0.188	0.737	0.461	0.251	0.243	0.211
LC-2-ad	0.595	0.546	0.414	0.537	0.549	0.853	0.57	0.513	0.516	0.416	0.732	0.584	0.518	0.403	0.406

Cell Line	relative viability ([1]; first compound 0.02 µM)	relative viability ([1]; first compound 0.06325 µM)	relative viability ([1]; first compound 0.2 µM)	relative viability ([1]; first compound 0.6325 µM)	relative viability ([1]; first compound 2 µM)	relative viability ([2]; first compound 0.0025 µM)	relative viability ([2]; first compound 0.007906 µM)	relative viability ([2]; first compound 0.025 µM)	relative viability ([2]; first compound 0.07906 µM)	relative viability ([2]; first compound 0.25 µM)	relative viability ([3]; first compound 0.0025 µM)	relative viability ([3]; first compound 0.007906 µM)	relative viability ([3]; first compound 0.025 µM)	relative viability ([3]; first compound 0.07906 µM)	relative viability ([3]; first compound 0.25 µM)
LCLC-97TM1	0.462	0.408	0.411	0.442	0.428	0.346	0.379	0.268	0.272	0.271	0.352	0.306	0.137	0.161	0.123
LCLC-103H	0.303	0.256	0.317	0.322	0.331	0.463	0.44	0.379	0.334	0.421	0.835	0.69	0.611	0.758	0.644
LK-2	–	–	–	0.56	0.546	0.197	0.205	0.164	0.18	0.186	0.347	0.544	0.288	0.259	0.12
LOU-NH91	0.727	0.624	0.623	0.66	0.645	0.735	0.654	0.568	0.53	0.478	0.769	0.704	0.704	0.676	0.548
LU99A	0.874	0.846	0.695	0.602	0.8	0.301	0.294	0.287	0.326	0.297	0.365	0.353	0.2	0.214	0.179
LXF-289	0.478	0.515	0.467	0.551	0.522	0.766	0.656	0.452	0.453	0.243	0.994	0.906	0.818	0.71	0.534
NCI-H23	0.829	0.77	0.693	0.718	0.797	0.588	0.429	0.268	0.374	0.158	0.256	0.233	0.232	0.158	0.191
NCI-H322M	0.689	0.769	0.642	0.838	0.777	0.504	0.483	0.467	0.41	0.383	0.602	0.436	0.482	0.414	0.425
NCI-H520	0.453	0.503	0.54	0.669	0.533	0.225	0.272	0.246	0.248	0.261	–	–	–	–	–
NCI-H661	0.261	0.277	0.266	0.276	0.264	0.686	0.595	0.51	0.522	0.389	–	–	–	–	–
NCI-H1563	0.627	0.64	0.635	0.672	0.684	0.745	0.819	0.772	0.884	0.623	–	–	–	–	–
NCI-H1623	0.631	0.537	0.546	0.513	0.564	0.361	0.35	0.326	0.28	0.311	–	–	–	–	–
NCI-H1648	–	–	–	–	–	–	0.28	0.273	0.279	0.272	0.69	0.716	0.879	0.78	0.441
NCI-H1650	0.401	0.451	0.362	0.345	0.397	0.632	0.604	0.534	0.451	0.204	–	–	–	–	–
NCI-H1703	–	–	–	–	–	–	–	–	–	–	0.141	0.126	0.144	0.101	0.112
NCI-H2009	0.486	0.518	0.509	0.502	0.513	0.505	0.405	0.229	0.226	0.247	–	–	–	–	–
NCI-H2023	0.395	0.376	0.361	0.409	0.418	0.344	0.297	0.229	0.311	0.188	–	–	–	–	–
NCI-H2228	0.213	0.273	–	–	0.304	0.498	0.427	0.222	0.237	0.192	–	–	–	–	–
SK-LU-1	0.409	0.41	0.444	0.524	0.646	0.319	0.313	0.217	0.198	0.188	–	–	–	–	–
SK-MES-1	0.653	0.634	0.715	0.672	0.624	0.647	0.582	0.46	0.447	0.266	–	–	–	–	–
SW 1573	0.394	0.344	0.436	0.352	0.441	0.474	0.486	0.344	0.338	0.285	–	–	–	–	–
